Experiments:
Experiment in all cases: combination Emax (second highest fraction inhibited in the dose matrix, 72 h); higher = more inhibition; extreme values may be limits of the assay
[1] = test system: MDA-MB-415 (Breast Carcinoma)
How it was run: (§1)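 Bliss excess equals the observed combination effect minus the expected value EA + EB − EA·EB, where EA and EB are the effects of each agent alone. Combination Emax is the second-highest inhibition within the matrix. Inhibition was scaled from CellTiter-Glo 2.0 luminescence, with 0 set by vehicle wells and 1 by blank wells, after 72 hours of two-drug dosing of cells plated in 1536-well plates.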

[2] = test system: P30-OHK (B-Lymphoblastic Leukemia)
How it was run: as §1

[3] = test system: NCI-H3118 (Head and Neck Carcinoma)
How it was run: as §1

[4] = test system: HT-1080 (Other Solid Carcinomas)
How it was run: as §1

[5] = test system: LCLC-103H (Non-Small Cell Lung Carcinoma)
How it was run: as §1

[6] = test system: MONO-MAC-6 (Acute Myeloid Leukemia)
How it was run: as §1

[7] = test system: SUP-M2 (T-Cell Non-Hodgkin's Lymphoma)
How it was run: as §1

[8] = test system: SiHa (Cervical Carcinoma)
How it was run: as §1

[9] = test system: RCC-JW (Kidney Carcinoma)
How it was run: as §1

[10] = test system: KALS-1 (Glioblastoma)
How it was run: as §1

[11] = test system: MS-1 (Small Cell Lung Carcinoma)
How it was run: as §1

[12] = test system: MOLP-8 (Plasma Cell Myeloma)
How it was run: as §1

[13] = test system: NB1 (Neuroblastoma)
How it was run: as §1

[14] = test system: P32-ISH (Burkitt's Lymphoma)
How it was run: as §1

[15] = test system: PA-TU-8988T (Pancreatic Carcinoma)
How it was run: as §1

[16] = test system: Raji (Burkitt's Lymphoma)
How it was run: as §1

[17] = test system: T84 (Colorectal Carcinoma)
How it was run: as §1

[18] = test system: AM-38 (Glioblastoma)
How it was run: as §1

[19] = test system: PL4 (Pancreatic Carcinoma)
How it was run: as §1

[20] = test system: IA-LM (Non-Small Cell Lung Carcinoma)
How it was run: as §1

| SMILES | combination Emax [1] | combination Emax [2] | combination Emax [3] | combination Emax [4] | combination Emax [5] | combination Emax [6] | combination Emax [7] | combination Emax [8] | combination Emax [9] | combination Emax [10] | combination Emax [11] | combination Emax [12] | combination Emax [13] | combination Emax [14] | combination Emax [15] | combination Emax [16] | combination Emax [17] | combination Emax [18] | combination Emax [19] | combination Emax [20] |
| --- | --- | --- | --- | --- | --- | --- | --- | --- | --- | --- | --- | --- | --- | --- | --- | --- | --- | --- | --- | --- |
| Cc1cc2ncnn2cc1Nc1ncc2c(n1)n(C1CCOCC1)c(=O)n2C [AZD7648] + C=CCn1c(=O)c2cnc(Nc3ccc(N4CCN(C)CC4)cc3)nc2n1-c1cccc(C(C)(C)O)n1 [AZD1775] (first compound max 10 µM, partner max 1 µM) | 0.488 | 0.754 | 0.897 | 0.405 | 0.552 | 0.909 | 0.991 | 0.308 | 0.413 | 0.846 | 0.827 | 0.828 | 0.847 | 1 | 0.749 | 0.755 | 0.45 | 0.343 | 0.379 | 0.42 |
| CC(=O)c1c(C)c2cnc(Nc3ccc(N4CCNCC4)cn3)nc2n(C2CCCC2)c1=O [Palbociclib] + Cc1c2c(nn1C)CSCc1cc(n(C)n1)CSc1cc(c3ccccc3c1)OCCCc1c(C(=O)O)n(C)c3c-2c(Cl)ccc13 [AZD5991] (first compound max 10 µM, 7x7, partner max 1 µM) | 0.444 | 0.811 | 0.426 | 0.0542 | 0.329 | 1 | 1 | 0.0939 | 0.255 | 0.229 | 0.609 | 1 | 0.529 | 1 | 0.229 | 0.704 | 0.119 | 0.405 | 0.263 | 0.306 |
| CC1(C)CCC(CN2CCN(c3ccc(C(=O)NS(=O)(=O)c4ccc(NCC5CCOCC5)c([N+](=O)[O-])c4)c(Oc4cnc5[nH]ccc5c4)c3)CC2)=C(c2ccc(Cl)cc2)C1 [Venetoclax] + Cn1cnc2c(F)c(Nc3ccc(Br)cc3Cl)c(C(=O)NOCCO)cc21 [Selumetinib] (first compound max 1 µM, 7x7, partner max 3 µM) | 0.176 | 0.303 | 0.294 | 0.316 | 0.115 | 0.357 | 0.366 | 0.16 | 0.144 | 0.578 | 0.396 | 0.186 | 0.0633 | 0.239 | 0.272 | 0.0995 | 0.16 | 0.498 | 0.443 | 0.175 |
| CN(CCO)CC[C@H](CSc1ccccc1)Nc1ccc(S(=O)(=O)NC(=O)c2ccc(N3CCC([C@@H](O)c4ccccc4-c4ccc(Cl)cc4)CC3)cc2)cc1S(=O)(=O)C(F)(F)F [AZD4320] + C[C@@H](Nc1cc(F)cc(F)c1)c1cc(C(=O)N(C)C)cc2c(=O)cc(N3CCOCC3)oc12 [AZD8186] (first compound max 1 µM, 7x7, partner max 3 µM) | 0.909 | 0.979 | 0.39 | 0.704 | 0.507 | 0.714 | 0.944 | 0.33 | 0.817 | 0.5 | 0.613 | 0.414 | 0.651 | 0.782 | 0.437 | 0.354 | 0.249 | 0.905 | 0.694 | 0.617 |
| Cc1c2c(nn1C)CSCc1cc(n(C)n1)CSc1cc(c3ccccc3c1)OCCCc1c(C(=O)O)n(C)c3c-2c(Cl)ccc13 [AZD5991] + CC1(C)CCC(CN2CCN(c3ccc(C(=O)NS(=O)(=O)c4ccc(NCC5CCOCC5)c([N+](=O)[O-])c4)c(Oc4cnc5[nH]ccc5c4)c3)CC2)=C(c2ccc(Cl)cc2)C1 [Venetoclax] (first compound max 1 µM, 7x7, partner max 1 µM) | 0.73 | 0.996 | 0.412 | 0.188 | 0.145 | 1 | 0.994 | 0.137 | 0.23 | 0.305 | 0.76 | 1 | 0.535 | 1 | 0.151 | 0.682 | 0.142 | 0.597 | 0.234 | 0.317 |
| COc1cccc(OCCCN)c1-c1cc(Nc2cnc(C#N)cn2)n[nH]1 [Prexasertib] + CN(C)CCCOc1ccc(-c2ccc3ncc4c(c3c2)n(C2CCOCC2)c(=O)n4C)cn1 [AZD0156] (first compound max 1 µM, 7x7, partner max 1 µM) | 0.321 | 0.987 | 0.858 | 0.563 | 0.718 | 0.963 | 1 | 0.293 | 0.366 | 0.839 | 0.983 | 0.894 | 0.911 | 1 | 0.38 | 0.959 | 0.815 | 0.837 | 0.806 | 0.42 |
| COc1cc2c(cc1OCCCCCOc1cc3c(cc1OC)C(=O)N1C=C(C)C[C@H]1C=N3)N=C[C@@H]1CC(C)=CN1C2=O [SG3199] + O=C(c1cc(Cc2n[nH]c(=O)c3ccccc23)ccc1F)N1CCN(C(=O)C2CC2)CC1 [Olaparib] (first compound max 0.001 µM, 7x7, partner max 10 µM) | 0.0958 | 0.31 | 0.118 | 0.12 | 0.0713 | 0.234 | 0.839 | 0.0997 | 0.0774 | 0.163 | 0.379 | 0.233 | 0.187 | 0.247 | 0.206 | 0.43 | 0.0664 | 0.306 | 0.204 | 0.139 |
| C[C@@H]1COCCN1c1cc(C2([S@](C)(=N)=O)CC2)nc(-c2ccnc3[nH]ccc23)n1 [AZD6738] + O=C(c1cc(Cc2n[nH]c(=O)c3ccccc23)ccc1F)N1CCN(C(=O)C2CC2)CC1 [Olaparib] (first compound max 10 µM, 7x7, partner max 10 µM) | 0.446 |  | 0.64 | 0.45 | 0.504 | 0.948 | 1 | 0.228 | 0.552 | 0.793 | 0.742 | 0.794 | 0.772 | 0.91 | 0.448 | 0.855 | 0.672 | 0.747 | 0.672 | 0.399 |
| C[C@@H](c1ccc2nccn2c1)n1nnc2ncc(-c3cnn(C)c3)nc21 [Savolitinib] + CN(CC[C@H](CSC1=CC=CC=C1)NC2=C(C=C(C=C2)S(=O)(=O)NC(=O)C3=CC=C(C=C3)N4CCC(CC4)[C@H](C5=CC=CC=C5C6=CC=C(C=C6)Cl)O)S(=O)(=O)C(F)(F)F)CCO [AZD4320] (first compound max 1 µM, 7x7, partner max 1 µM) |  | 0.948 |  | 0.566 |  |  | 0.287 | 0.224 |  |  |  | 0.216 | 0.159 | 0.165 | 0.191 | 0.173 |  | 0.613 | 0.472 |  |
| CC(=O)c1c(C)c2cnc(Nc3ccc(N4CCNCC4)cn3)nc2n(C2CCCC2)c1=O [Palbociclib] + CN(CC[C@H](CSC1=CC=CC=C1)NC2=C(C=C(C=C2)S(=O)(=O)NC(=O)C3=CC=C(C=C3)N4CCC(CC4)[C@H](C5=CC=CC=C5C6=CC=C(C=C6)Cl)O)S(=O)(=O)C(F)(F)F)CCO [AZD4320] (first compound max 10 µM, 7x7, partner max 1 µM) |  | 0.967 |  | 0.415 |  |  | 0.897 | 0.104 |  |  |  | 0.542 | 0.597 | 0.735 | 0.33 | 0.455 |  | 0.872 | 0.483 |  |
| COc1nnc2ccc(N3CCC(c4ccc(OCCN5CCN(C)C(=O)[C@H]5C)cc4)CC3)nn12 [AZD5153] + CN(CC[C@H](CSC1=CC=CC=C1)NC2=C(C=C(C=C2)S(=O)(=O)NC(=O)C3=CC=C(C=C3)N4CCC(CC4)[C@H](C5=CC=CC=C5C6=CC=C(C=C6)Cl)O)S(=O)(=O)C(F)(F)F)CCO [AZD4320] (first compound max 1 µM, 7x7, partner max 1 µM) |  | 1 |  | 0.618 |  |  | 0.986 | 0.527 |  |  |  | 0.98 | 0.248 | 0.68 | 0.695 | 0.579 |  | 0.949 | 0.809 |  |
| CCc1c2c(nc3ccc(O)cc13)-c1cc3c(c(=O)n1C2)COC(=O)[C@]3(O)CC [SN-38] + O=C(c1cc(Cc2n[nH]c(=O)c3ccccc23)ccc1F)N1CCN(C(=O)C2CC2)CC1 [Olaparib] (first compound max 0.3 µM, 7x7, partner max 10 µM) | 0.321 | 0.99 | 0.396 | 0.489 | 0.54 | 1 | 1 | 0.32 | 0.616 | 0.616 | 0.724 | 0.783 |  | 1 | 0.604 | 0.956 | 0.528 | 0.882 | 0.903 | 0.878 |

Reference: the supplement of paper PMC11061612
